Measurements from patent US7713994B2 (Wyeth LLC, priority 2005, dated 2010).
Where two headings read alike, the source gives them in different places.

Legend:
[1] = biological target: T1, cyclin E/CDK2 enzyme (Homo sapiens, UniProt P24941); test: CDK2 ELISA kinase assay (phospho-Rb ser 795 detection); type: biochemical
T1 construct: made in house; host or cells: Sf9 insect cells, recombinant baculovirus
Summary of the method: (§1)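 Wells were coated overnight with GST-Rb C-terminal fragment, then blocked. Compound (10 ug/ml final) and cyclin/CDK enzyme from baculovirus-infected Sf9 cells with 200 μM ATP reacted 1 h at 30° C. Ser795 phosphorylation was detected by ELISA at 450 nm.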

[2] = biological target: T2, cyclin D1/cdk 4 enzyme (Homo sapiens, UniProt P11802); test: CDK4 ELISA kinase assay (phospho-Rb ser 795 detection); type: biochemical
T2 construct: made in house; host or cells: Sf9 insect cells, recombinant baculovirus
T2 sequence (P11802 whole entry, species assumed): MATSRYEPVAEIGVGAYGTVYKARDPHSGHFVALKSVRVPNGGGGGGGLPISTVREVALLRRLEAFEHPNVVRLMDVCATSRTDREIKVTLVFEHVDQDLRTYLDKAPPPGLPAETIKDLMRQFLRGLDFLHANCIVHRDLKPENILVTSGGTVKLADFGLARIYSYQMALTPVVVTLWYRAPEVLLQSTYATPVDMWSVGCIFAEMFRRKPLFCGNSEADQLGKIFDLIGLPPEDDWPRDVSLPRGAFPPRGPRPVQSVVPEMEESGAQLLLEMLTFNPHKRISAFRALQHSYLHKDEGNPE
T2 sequence (P24385 whole entry partner, species assumed): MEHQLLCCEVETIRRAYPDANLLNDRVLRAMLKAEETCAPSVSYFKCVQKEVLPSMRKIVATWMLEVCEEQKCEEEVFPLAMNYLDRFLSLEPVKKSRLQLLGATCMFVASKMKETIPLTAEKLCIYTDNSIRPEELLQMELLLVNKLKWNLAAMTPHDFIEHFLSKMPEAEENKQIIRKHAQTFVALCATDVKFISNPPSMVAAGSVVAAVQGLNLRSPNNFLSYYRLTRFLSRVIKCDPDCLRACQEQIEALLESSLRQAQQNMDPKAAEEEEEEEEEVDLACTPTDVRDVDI
Summary of the method: as §1

[3] = system: HCT-116; test: Cytotoxicity assay (SRB), HCT-116; type: cell-based; conditions: Homo sapiens, HCT-116, 72 h, HCT116 cells, SRB, read-out: In Vitro Cellular Activity IC50 HCT116
Summary of the method: (§2)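 BT474 (12000 cells/well) was treated for 6 days, whereas HCT-116 (4000), LoVo (6000) and MCF-7 (6000) were treated for 3 days, all in RPMI 1640 containing 5% FBS. Surviving-cell percentage came from SRB dye binding measured at 540 nm.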

[4] = system: BT474; test: Cytotoxicity assay (SRB), BT474; type: cell-based
Summary of the method: as §2

[5] = system: LoVo; test: Cytotoxicity assay (SRB), LoVo; type: cell-based; conditions: Homo sapiens, LoVo, 72 h, LoVo cells, SRB, read-out: In Vitro Cellular Activity IC50 LOVO
Summary of the method: as §2

[6] = biological target: T3, cyclin B/CDK1 enzyme (Homo sapiens, UniProt P06493); test: CDK1 ELISA kinase assay (phospho-Rb ser 795 detection); type: biochemical
T3 construct: purchased New England BioLabs; host or cells: Sf9 insect cells, recombinant baculovirus
T3 sequence (P06493 whole entry): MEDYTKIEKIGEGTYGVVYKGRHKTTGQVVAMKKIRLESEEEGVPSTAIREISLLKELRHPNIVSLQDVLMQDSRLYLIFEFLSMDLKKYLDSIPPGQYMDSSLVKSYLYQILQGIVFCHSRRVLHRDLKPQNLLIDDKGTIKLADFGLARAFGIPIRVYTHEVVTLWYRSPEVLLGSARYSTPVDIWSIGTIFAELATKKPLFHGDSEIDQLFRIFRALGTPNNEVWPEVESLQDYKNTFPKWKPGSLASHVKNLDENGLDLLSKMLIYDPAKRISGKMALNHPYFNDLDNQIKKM
T3 sequence (P14635 whole entry partner): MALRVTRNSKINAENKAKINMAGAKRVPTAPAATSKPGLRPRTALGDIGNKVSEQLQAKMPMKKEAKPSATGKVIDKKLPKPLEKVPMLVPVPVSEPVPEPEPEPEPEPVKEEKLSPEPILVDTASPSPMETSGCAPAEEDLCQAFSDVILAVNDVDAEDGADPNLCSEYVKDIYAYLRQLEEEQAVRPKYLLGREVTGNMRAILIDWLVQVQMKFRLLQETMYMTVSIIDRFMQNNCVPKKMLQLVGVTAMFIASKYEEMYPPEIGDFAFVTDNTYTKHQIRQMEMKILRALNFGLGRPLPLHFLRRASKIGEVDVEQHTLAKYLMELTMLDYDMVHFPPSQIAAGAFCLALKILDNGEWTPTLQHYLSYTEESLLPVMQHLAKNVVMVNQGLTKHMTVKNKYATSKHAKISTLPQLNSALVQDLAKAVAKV
Summary of the method: as §1

[7] = system: MCF-7; test: Cytotoxicity assay (SRB), MCF-7; type: cell-based; conditions: Homo sapiens, MCF7, 72 h, MCF-7 cells, SRB, read-out: In Vitro Cellular Activity IC50 MCF-7
Summary of the method: as §2

[8] = biological target: T4, Cyclin D1/CDK6 (Homo sapiens, UniProt Q00534); test: Cyclin D1/CDK6 Elisa; type: biochemical; conditions: 200 μM ATP
T4 construct: made in house; host or cells: Sf9 insect cells, recombinant baculovirus
T4 sequence (Q00534 whole entry, species assumed): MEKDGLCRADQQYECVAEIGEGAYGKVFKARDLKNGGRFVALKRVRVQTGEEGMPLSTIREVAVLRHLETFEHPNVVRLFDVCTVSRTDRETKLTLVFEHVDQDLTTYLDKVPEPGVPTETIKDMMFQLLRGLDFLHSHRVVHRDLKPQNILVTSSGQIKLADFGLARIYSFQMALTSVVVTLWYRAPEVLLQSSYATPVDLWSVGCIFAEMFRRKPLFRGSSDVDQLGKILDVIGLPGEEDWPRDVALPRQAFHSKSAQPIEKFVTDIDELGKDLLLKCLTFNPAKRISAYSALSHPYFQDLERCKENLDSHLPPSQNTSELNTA
T4 sequence (P24385 whole entry partner, species assumed): as the sequence (P24385 whole entry partner, species assumed) above
Experimental: Cyclin D1/CDK6 was expressed in insect cells (Sf9) infected with recombinant baculovirus and partially purified using ammonium sulfate fractionation. Test compounds were diluted in 20% DMSO/20 mM HEPES, pH 7.5 and serial dilutions were prepared (5 concentrations; 0.005-50 µM). High-binding ELISA microtiter plates (Costar) were coated with the kinase substrate (glutathione-S-transferase (GST) fusion of C-terminal fragment of the retinoblastoma susceptibility gene product (Rb). Non-specific binding sites were blocked with Superblock in Tris-buffered saline (TBS; Pierce). Kinase reactions contained the test inhibitor, 200 μM ATP, 0.5 mg/ml bovine serum albumin (BSA; Sigma), and 0.1 μl cyclin D1/cdk 6. Reaction volumes were adjusted to 30 μl with kinase assay buffer (50 mM HEPES, pH 7.5, 10 mM MgCl2, 5% glycerol, 10 mM 2-mercaptoethanol), and plates were incubated at 30° C. for 1 hour. Reactions were terminated by aspiration, and non-specific sites were blocked with blocking buffer (TBS containing 0.1% Tween-20 and 5% nonfat dry milk). Phoshporylation of the substrate was detected using phospho-Rb specific antibodies (ser-795) (Cell Signalling Technologies) and anti-rabbit IgG/horseradish peroxidase conjugates (Amersham Life Science) using TMB as substrate. Colourimetric reactions were stopped with 2N sulphuric acid and the absorbance was measured at 450 nm (Molecular Devices). IC50 values were determined from inhibition plots.

[9] = system: SK-UT-1B; test: Cytotoxicity assay (SRB), SK-UT-1B; type: cell-based; conditions: Homo sapiens, Skut1B; SK-UT-1B cells; read-out: In Vitro Cellular Activity IC50 SK-UT-1B
[10] = system: SK-Br-3; test: Cytotoxicity assay (SRB), SK-Br-3; type: cell-based; conditions: Homo sapiens; SK-Br-3 cells; read-out: In Vitro Cellular Activity IC50 SK-Br-3
[11] = biological target: T5, IGF1-receptor kinase (Homo sapiens, UniProt P08069); test: IGF1-R kinase assay (96-well FRET Lance); type: biochemical; conditions: 100 micromolar ATP; read-out: Igfr ic50
T5 construct: Purified GST-IGFR; purified Bis-IGFR and Tris-IGFR; fused on or other part: GST with a thrombin cleavage site, removed in the Bis-IGFR and Tris-IGFR forms
T5 sequence (P08069 999-1274 limits assumed): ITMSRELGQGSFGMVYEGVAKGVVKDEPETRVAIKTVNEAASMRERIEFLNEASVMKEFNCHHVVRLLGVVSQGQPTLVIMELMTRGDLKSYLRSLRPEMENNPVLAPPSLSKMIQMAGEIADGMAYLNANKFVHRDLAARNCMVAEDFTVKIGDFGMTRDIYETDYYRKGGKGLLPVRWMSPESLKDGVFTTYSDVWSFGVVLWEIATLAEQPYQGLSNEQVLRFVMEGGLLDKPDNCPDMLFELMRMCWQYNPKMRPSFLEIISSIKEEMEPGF
Excerpt: • TITLE: 96-well assay for inhibitors of IGF1-receptor kinase activity • SHORT TITLE: IGF1-R kinase assay • PURPOSE: Identify inhibitors of IGF-1 receptor kinase activity • MATERIALS AND METHODS: Overview: This is a 96-well FRET (Lance) tyrosine kinase assay. • Materials: • Purified GST-IGFR; purified Bis-IGFR and Tris-IGFR; expressed in ExpresSF insect cells. Bis and Tris IGFR are made by phosphorylating the IGFR in the presence of ATP and Mg2+, followed by thrombin cleavage to remove the GST-thrombin cleavage site, and purification by HPLC. The Bis and tris IGFR are phosphorylated on two (bis) or all three tyrosines (tris) in the activation loop. • Biotinylated peptide with a sequence corresponding to the sequence surrounding the autophosphorylation sites in IGF1-R Biotin-NH2-[…]-OH (Anaspec) • Europium-conjugated phosphotyrosine antibody (PT66) (Perkin-Elmer). • Surelight APC (Perkin-elmer) • Plates: 96-well Assay plates (polypropylene plates, natural color) • 96-well-Lance plates (Microfluor 2 black plates; Cat # 7205; Thermolabsystems. • ATP: (Amersham Pharmacia Cat # 27-2056-01), 100 mM stock. • IGFR Lance Protocol (96-well format) • Procedure: • Reagents: • Kinase Buffer (10×): • 0.5 M Hepes, pH 7.5 rt • 0.1 M MgCl2 • Quench Buffer (to be added straight, 1:1, to r×n mix): • 50 mM Hepes, pH 7.5 rt • 50 mM EDTA • Lance Detection Buffer: • 20 mM Tris-HCl, pH 7.5 rt • 0.15 M NaCl-150 • 150 ug/ml BSA (Sigma Cat# A-7284) • Eu-labeled phosphotyrosine antibody PT66 (Perkin-Elmer): 1:4000 dilution of 200 μg/ml stock • Streptavidin-APC (Perkin Elmer): 1/250 (4 microgram/ml final) • ATP (Amersham Pharmacia cat #27-2056-01) 100 mM stock: Dilute to 1 mM (10×) in water. […] Transfer 12.5[…] of the kinase reaction to the antibody detection plate. Allow antibody to react for 1 h at rt in the dark. Then read in Victor with an excitation filter of 340 nm and an emission filter of 665 nm. • Compound additions: • When Example compounds are tested, they are added from a 10% DMSO/50 mM Hepes (pH 7.5) 10× stock. 5 microliters of compound in this buffer are added to the enzyme-peptide-buffer mix. After 10′ incubation at room temperature, ATP is added to start the reaction. A no ATP background control is included in the assay. • […] OF RESULTS: Data are analyzed as follows: % Inhibition={[Sample cpm−Bkg cpm]/[No cmpd cpm−Bkg cpm]}×100%. The biological activity of representative Examples of the invention is reported in Table VII as: 0.2 µM≦x≦10 µM or % inhibition@10 µM.

[12] = In Vitro Enzyme Assays, read-out: CDK2 IC50
[13] = In Vitro Enzyme Assays, 200 μM ATP, read-out: CDK4 IC50
[14] = Homo sapiens, BT-474, 144 h, BT474 cells, SRB, 6 days; read-out: In Vitro Cellular Activity IC50 BT474
[15] = In Vitro Enzyme Assays, read-out: CDK1 IC50
[16] = In Vitro Enzyme Assay, cyclin E/CDK2, read-out: CDK2 IC50
[17] = Homo sapiens, BT-474, 144 h, BT474 cells, 6 days, SRB; read-out: In Vitro Cellular Activity IC50 BT474

Row | IC50 [1, 12] [µM] | IC50 [2, 13] [µM] | IC50 [6, 15] [µM] | IC50 [8] [µM] | melting point [°C] | IC50 [1, 16] [µM] | IC50 ([2]; In Vitro Enzyme Assay, cyclin D1/cdk 4, read-out: CDK4 IC50) [µM] | IC50 ([6]; In Vitro Enzyme Assay, cyclin B/CDK1, read-out: CDK1 IC50) [µM] | IC50 [11] [µM] | SMILES | IC50 ([3]; three days) [µM] | IC50 [4, 14] [µM] | IC50 ([5]; three days) [µM] | IC50 ([7]; three days) [µM] | IC50 [9] [µM] | IC50 ([3]; 3 days) [µM] | IC50 [4, 17] [µM] | IC50 ([5]; 3 days) [µM] | IC50 ([7]; 3 days) [µM] | IC50 [10] [µM]
1 |  | 0.004 | 9.7 | 0.001 | 252 to 253 |  |  |  |  | COc1ccc(CN/C=C2\C(=O)NC(=O)c3ccc(-n4cccc4)cc32)cc1O [Example 71] | 4.7 | 3.8 | 3 | 7.8 |  |  |  |  |  | 
2 |  |  | > 50 | 0.02 | 207 to 208 |  |  |  |  | O=C1NC(=O)c2ccc(-n3cccc3)cc2/C1=C/Nc1ccc(CN2CCCCC2)cc1 [Example 74] | 2.7 | 3.3 | 2.4 | 2.1 |  |  |  |  |  | 
3 | 0.87 | 0.01 | 6 | 0.002 |  |  |  |  |  | COc1ccc(CN/C=C2\C(=O)NC(=O)c3ccc(I)cc32)cc1O [Example 80, (4Z)-6-Iodo-4-{[(3-hydroxy-4-methoxybenzyl)amino]methylene}isoquinoline-1,3(2H,4H)-dione] | 2 | 1.7 | 1.5 | 3.7 |  |  |  |  |  | 
4 | > 50 | 0.48 | > 50 | 0.1 |  |  |  |  |  | CN1CCN(c2ccc(N/C=C3\C(=O)NC(=O)c4ccc(I)cc43)cc2)CC1 [Example 81, (4Z)-6-Iodo-4-({[4-(4-methylpiperazin-1-yl)phenyl]amino}methylene)isoquinoline-1,3(2H,4H)-dione] |  | 2.8 | 5.1 |  |  |  |  |  |  | 
5 | 20.4 | 0.3 | > 50 | 0.03 | 202 to 203 |  |  |  |  | O=C1NC(=O)c2ccc(I)cc2/C1=C/Nc1ccc(CN2CCCCC2)cc1 [Example 82, (4Z)-6-Iodo-4-({[4-(piperidin-1-ylmethyl)phenyl]amino}methylene)isoquinoline-1,3(2H,4H)-dione] | 2.7 | 0.6 | 3.1 | 1 |  |  |  |  |  | 
6 | > 50 | 0.002 | > 50 | 0.001 | 250 to 251 |  |  |  |  | COc1cc(CN/C=C2\C(=O)NC(=O)c3ccc(-c4ccccc4)cc32)cc(O)c1OC [Example 86] | 4.5 | 3.2 | 3.7 | 5.1 |  |  |  |  |  | 
7 |  |  |  |  |  | 2.5 | 17.9 | > 50 |  | Nc1ccc(NC=C2C(=O)NC(=O)c3ccccc32)cc1 [Example 545, 4-[(4-Amino-phenylamino)-methylene]-4H-isoquinoline-1,3-dione] |  |  |  |  | 38.9 | 40.1 | > 50 | > 50 | > 50 | > 50
8 |  |  |  |  |  | 12.5 |  |  |  | O=C1NC(=O)c2ccccc2/C1=C/NCc1ccc(O)c(O)c1 [Example 550, 4-[(3,4-Dihydroxy-benzylamino)-methylene]-4H-isoquinoline-1,3-dione] |  |  |  |  | 17.3 | 26.6 | 36.5 | 46.5 | 39.1 | 32.4
9 |  |  |  |  |  |  |  |  | 6.16 | O=C1NC(=O)c2ccc(Nc3cccc4ncccc34)cc2/C1=C/Nc1ccc(CN2CCCCC2)cc1 [Example 913, (4Z)-4-({[4-(piperidin-1-ylmethyl)phenyl]amino}methylene)-6-(quinolin-5-ylamino)isoquinoline-1,3(2H,4H)-dione] |  |  |  |  |  |  |  |  |  | 
10 | > 50 | 0.007 | > 50 | 0.002 |  |  |  |  |  | COc1cc(CN/C=C2\C(=O)NC(=O)c3ccc(Br)cc32)cc(O)c1OC [compound 78] | > 50 | 42 | > 50 | 32.5 |  |  |  |  |  | 

Row | SMILES | IC50 [1, 12] [µM] | IC50 [2, 13] [µM] | IC50 [6, 15] [µM] | IC50 [8] [µM] | melting point [°C] | IC50 [1, 16] [µM] | IC50 ([2]; In Vitro Enzyme Assay, cyclin D1/cdk 4, read-out: CDK4 IC50) [µM] | IC50 ([6]; In Vitro Enzyme Assay, cyclin B/CDK1, read-out: CDK1 IC50) [µM] | IC50 [11] [µM] | IC50 ([3]; three days) [µM] | IC50 [4, 14] [µM] | IC50 ([5]; three days) [µM] | IC50 ([7]; three days) [µM] | IC50 [9] [µM] | IC50 ([3]; 3 days) [µM] | IC50 [4, 17] [µM] | IC50 ([5]; 3 days) [µM] | IC50 ([7]; 3 days) [µM] | IC50 [10] [µM]
11 | O=C1NC(=O)c2ccc(Cl)cc2/C1=C/Nc1ccc(CN2CCCCC2)cc1 [Example 55, (4Z)-6-Chloro-4-({[4-(piperidin-1-ylmethyl)phenyl]amino}methylene)isoquinoline-1,3(2H,4H)-dione] | > 50 | 2.5 | > 50 | 0.12 | 225 to 226 |  |  |  |  | 5.7 | 11 | 7.7 | 7 |  |  |  |  |  | 
12 | COc1ccc(CN/C=C2\C(=O)NC(=O)c3cccc(Br)c32)cc1O [Example 84, (4Z)-5-Bromo-4-{[(3-hydroxy-4-methoxybenzyl)amino]methylene}isoquinoline-1,3(2H,4H)-dione] | 3.1 | 0.94 | 8.1 | 0.07 | 204 to 206 |  |  |  |  | 3.1 | 2.1 | 4.6 | 6.7 |  |  |  |  |  | 
